Each block holds one molecule with its values, some of them ahead of it. The source made the active and inactive calls. No cut-off for these calls is given here.
How the values were obtained:
[1] = molecular target: T1, Eukaryotic elongation factor 2 kinase (Homo sapiens, UniProt O00418); assay: Inhibition of eEF2K (unknown origin)
T1 sequence (O00418 whole entry): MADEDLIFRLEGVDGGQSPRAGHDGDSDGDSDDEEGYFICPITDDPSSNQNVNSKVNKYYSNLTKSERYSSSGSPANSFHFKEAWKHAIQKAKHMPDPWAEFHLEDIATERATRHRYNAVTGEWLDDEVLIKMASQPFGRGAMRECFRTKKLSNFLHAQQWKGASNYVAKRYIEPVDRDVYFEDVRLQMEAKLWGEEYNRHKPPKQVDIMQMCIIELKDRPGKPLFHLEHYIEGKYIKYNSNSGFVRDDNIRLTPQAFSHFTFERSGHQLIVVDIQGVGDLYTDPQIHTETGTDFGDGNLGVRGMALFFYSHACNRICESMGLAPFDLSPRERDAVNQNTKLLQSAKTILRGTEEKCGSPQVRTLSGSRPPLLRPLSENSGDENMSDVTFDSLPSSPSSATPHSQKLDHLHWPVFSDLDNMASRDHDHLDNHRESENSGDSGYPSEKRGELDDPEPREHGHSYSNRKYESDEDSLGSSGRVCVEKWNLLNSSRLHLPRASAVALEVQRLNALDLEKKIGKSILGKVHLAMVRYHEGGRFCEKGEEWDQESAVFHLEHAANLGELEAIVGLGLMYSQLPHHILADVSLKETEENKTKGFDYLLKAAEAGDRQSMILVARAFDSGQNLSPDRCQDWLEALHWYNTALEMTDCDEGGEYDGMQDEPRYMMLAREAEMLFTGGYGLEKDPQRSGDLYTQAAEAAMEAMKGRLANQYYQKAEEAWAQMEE

[2] = molecular target: T2, Protein cereblon/Eukaryotic elongation factor 2 kinase (Homo sapiens) (UniProt O00418+Q96SW2); assay: Protac activity at eEF2K/E3 ubiquitin ligase in human MDA-MB-231 cells assessed as degradation of eEF2K at 200 uM measured after 24 hrs by western blot assay; format: cell-based
T2 sequence (Q96SW2 whole entry, looked up, one chain of several): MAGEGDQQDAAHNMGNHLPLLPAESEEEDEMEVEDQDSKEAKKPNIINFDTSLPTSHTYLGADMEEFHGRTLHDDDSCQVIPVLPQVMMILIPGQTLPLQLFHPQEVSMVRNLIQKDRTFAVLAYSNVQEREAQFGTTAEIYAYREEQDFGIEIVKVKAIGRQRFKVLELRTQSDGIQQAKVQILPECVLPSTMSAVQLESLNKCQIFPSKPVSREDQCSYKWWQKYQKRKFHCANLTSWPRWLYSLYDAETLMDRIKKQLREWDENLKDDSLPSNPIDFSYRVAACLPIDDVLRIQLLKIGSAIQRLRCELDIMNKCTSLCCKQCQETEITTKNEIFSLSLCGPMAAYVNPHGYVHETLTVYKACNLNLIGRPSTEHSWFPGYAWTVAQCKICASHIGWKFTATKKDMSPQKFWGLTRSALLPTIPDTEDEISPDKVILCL

MDA-MB-231 [3] = assay: Induction of apoptosis in human MDA-MB-231 cells at 100 uM measured after 24 hrs by Hoechst staining based fluorescence microscopic method; format: functional, cell-based
MDA-MB-231 [4] = assay: Antiproliferative activity against human MDA-MB-231 cells at 100 uM measured by crystal violet staining based colony forming assay; format: functional, cell-based
MDA-MB-231 [5] = assay: Effect on eEF2K expression in human MDA-MB-231 cells at 10 uM measured after 2 hrs by western blot assay; format: functional, cell-based
MDA-MB-231 [6] = assay: Induction of apoptosis in human MDA-MB-231 cells assessed as viable cells at 100 uM measured after 24 hrs by Annexin V/PI staining based flowcytometry method (reference value: 94.63%); format: functional; conditions: read-out: Activity
MDA-MB-231 [7] = assay: Induction of apoptosis in human MDA-MB-231 cells assessed as necrotic cells at 200 uM measured after 24 hrs by Annexin V/PI staining based flowcytometry method (reference value: 0.44%); format: functional
MDA-MB-231 [8] = assay: Induction of apoptosis in human MDA-MB-231 cells assessed as late apoptotic cells at 200 uM measured after 24 hrs by Annexin V/PI staining based flowcytometry method (reference value: 1.81%); format: functional
MDA-MB-231 [9] = assay: Induction of apoptosis in human MDA-MB-231 cells assessed as viable cells at 50 uM measured after 24 hrs by Annexin V/PI staining based flowcytometry method (reference value: 94.63%); format: functional; conditions: read-out: Activity
MDA-MB-231 [10] = assay: Induction of apoptosis in human MDA-MB-231 cells assessed as late apoptotic cells at 100 uM measured after 24 hrs by Annexin V/PI staining based flowcytometry method (reference value: 1.81%); format: functional
MDA-MB-231 [11] = assay: Induction of apoptosis in human MDA-MB-231 cells assessed as necrotic cells at 100 uM measured after 24 hrs by Annexin V/PI staining based flowcytometry method (reference value: 0.44%); format: functional
MDA-MB-231 [12] = assay: Induction of apoptosis in human MDA-MB-231 cells assessed as upregulation of Bax expression at 50 to 200 uM measured after 24 hrs by western blot assay; format: functional, cell-based; conditions: dose 50-200 µM
MDA-MB-231 [13] = assay: Induction of apoptosis in human MDA-MB-231 cells assessed as decrease in Bcl2 expression at 50 to 200 uM measured after 24 hrs by western blot assay; format: functional, cell-based; conditions: dose 50-200 µM
MDA-MB-231 [14] = assay: Induction of apoptosis in human MDA-MB-231 cells assessed as early apoptotic cells at 200 uM measured after 24 hrs by Annexin V/PI staining based flowcytometry method (reference value: 3.12%); format: functional
[15] = molecular target: T2, Protein cereblon/Eukaryotic elongation factor 2 kinase (Homo sapiens); assay: Protac activity at eEF2K/E3 ubiquitin ligase in human MDA-MB-231 cells assessed as degradation of eEF2K at 100 uM pretreated with MG-132 for 2 hrs followed by compound addition measured after 8 hrs by western blot assay; format: cell-based
MCF-10A = assay: Cytotoxicity against human MCF-10A cells; format: cell-based
MDA-MB-231 [16] = assay: Induction of apoptosis in human MDA-MB-231 cells assessed as late apoptotic cells at 50 uM measured after 24 hrs by Annexin V/PI staining based flowcytometry method (reference value: 1.81%); format: functional
[17] = molecular target: T2, Protein cereblon/Eukaryotic elongation factor 2 kinase (Homo sapiens); assay: Protac activity at eEF2K/E3 ubiquitin ligase in human MDA-MB-231 cells assessed as degradation of p-eEF2K measured after 24 hrs by western blot assay; format: cell-based; conditions: dose 50-200 µM
MDA-MB-231 [18] = assay: Induction of apoptosis in human MDA-MB-231 cells assessed as early apoptotic cells at 100 uM measured after 24 hrs by Annexin V/PI staining based flowcytometry method (reference value: 3.12%); format: functional
MDA-MB-231 [19] = assay: Induction of apoptosis in human MDA-MB-231 cells assessed as viable cells at 200 uM measured after 24 hrs by Annexin V/PI staining based flowcytometry method (reference value: 94.63%); format: functional; conditions: read-out: Activity
[20] = molecular target: T2, Protein cereblon/Eukaryotic elongation factor 2 kinase (Homo sapiens); assay: Protac activity at eEF2K/E3 ubiquitin ligase in human MDA-MB-231 cells assessed as degradation of eEF2K measured after 24 hrs by western blot assay; format: cell-based; conditions: dose 50-200 µM
[21] = molecular target: T2, Protein cereblon/Eukaryotic elongation factor 2 kinase (Homo sapiens); assay: Protac activity at eEF2K/E3 ubiquitin ligase in human MDA-MB-231 cells assessed as degradation of eEF2K at 12.5 to 200 uM measured after 24 hrs by western blot assay; format: cell-based; conditions: dose 12.5-200 µM
[22] = molecular target: T2, Protein cereblon/Eukaryotic elongation factor 2 kinase (Homo sapiens); assay: Protac activity at eEF2K/E3 ubiquitin ligase in human MDA-MB-231 cells assessed as degradation of eEF2K at 100 uM pretreated with thalidomide for 2 hrs followed by compound addition measured after 8 hrs by western blot assay; format: cell-based
MDA-MB-231 [23] = assay: Induction of apoptosis in human MDA-MB-231 cells assessed as early apoptotic cells at 50 uM measured after 24 hrs by Annexin V/PI staining based flowcytometry method (reference value: 3.12%); format: functional
MDA-MB-231 [24] = assay: Induction of apoptosis in human MDA-MB-231 cells assessed as upregulation of cleaved caspase3 expression at 50 to 200 uM measured after 24 hrs by western blot assay; format: functional, cell-based; conditions: dose 50-200 µM
MDA-MB-231 [25] = assay: Induction of apoptosis in human MDA-MB-231 cells assessed as necrotic cells at 50 uM measured after 24 hrs by Annexin V/PI staining based flowcytometry method (reference value: 0.44%); format: functional

Activity [2]: inactive
SMILES: NC(=O)c1cc2c(=O)n(CC(=O)NCCCNC(=O)COc3cccc4c3C(=O)N(C3CCC(=O)NC3=O)C4=O)c(=O)n(C3CC3)c2cc1N (stereo not drawn)

Activity [2]: 35.3%
SMILES: CCn1c(=O)n(CC(=O)NCCCCCCNC(=O)COc2cccc3c2C(=O)N(C2CCC(=O)NC2=O)C3=O)c(=O)c2cc(C(N)=O)c(N)nc21 (stereo not drawn)

Activity [2]: inactive
SMILES: NC(=O)c1cc2c(=O)n(CC(=O)NCCCCCCNc3cccc4c3C(=O)N(C3CCC(=O)NC3=O)C4=O)c(=O)n(C3CC3)c2nc1N (stereo not drawn)

Activity [15]: inactive
Activity [17]: Active
Activity [20]: Active
Activity [21]: Active
Activity [22]: inactive
Activity [2]: 56.7%
SMILES: CCn1c(=O)n(CC(=O)NCCOCCNC(=O)COc2cccc3c2C(=O)N(C2CCC(=O)NC2=O)C3=O)c(=O)c2cc(C(N)=O)c(N)nc21 (stereo not drawn)
viability at 100 µM (MDA-MB-231 [6]): 84.4%
Activity (MDA-MB-231 [7]): 1.57%
Activity (MDA-MB-231 [8]): 6.12%
viability at 50 µM (MDA-MB-231 [9]): 89.9%
Activity (MDA-MB-231 [10]): 7.38%
Activity (MDA-MB-231 [11]): 0.68%
Activity (MDA-MB-231 [12]): Active
Activity (MDA-MB-231 [13]): Active
Activity (MDA-MB-231 [3]): Active
Activity (MDA-MB-231 [14]): 24.72%
Activity (MCF-10A): Toxic
Activity (MDA-MB-231 [16]): 3.24%
Activity (MDA-MB-231 [18]): 7.51%
viability at 200 µM (MDA-MB-231 [19]): 67.6%
Activity (MDA-MB-231 [23]): 5.29%
Activity (MDA-MB-231 [24]): Active
Activity (MDA-MB-231 [25]): 1.6%
Activity (MDA-MB-231 [4]): Active

Activity [2]: inactive
SMILES: CCn1c(=O)n(CC(=O)NCCNc2cccc3c2C(=O)N(C2CCC(=O)NC2=O)C3=O)c(=O)c2cc(C(N)=O)c(N)nc21 (stereo not drawn)

Activity [2]: 20%
SMILES: CCn1c(=O)n(CC(=O)NCCCNc2cccc3c2C(=O)N(C2CCC(=O)NC2=O)C3=O)c(=O)c2cc(C(N)=O)c(N)nc21 (stereo not drawn)

Second part, the molecule before the results:

SMILES: Cc1ccc(C2=NC(C)(O)CC(C(C)C)[Se]2)cc1 (stereo not drawn)
IC50 [1]: 0.31 µM

SMILES: NC(=O)c1cc2c(=O)n(CC(=O)NCCCNc3cccc4c3C(=O)N(C3CCC(=O)NC3=O)C4=O)c(=O)n(C3CC3)c2nc1N (stereo not drawn)
Activity [2]: inactive

SMILES: NC(=O)c1cc2c(=O)n(CC(=O)NCCCCCNc3cccc4c3C(=O)N(C3CCC(=O)NC3=O)C4=O)c(=O)n(C3CC3)c2cc1N (stereo not drawn)
Activity [2]: inactive

SMILES: NC(=O)c1cc2c(=O)n(CC(=O)NCCOCCNc3cccc4c3C(=O)N(C3CCC(=O)NC3=O)C4=O)c(=O)n(C3CC3)c2cc1N (stereo not drawn)
Activity [2]: inactive

SMILES: NC(=O)c1cc2c(=O)n(CC(=O)NCCCCNc3cccc4c3C(=O)N(C3CCC(=O)NC3=O)C4=O)c(=O)n(C3CC3)c2nc1N (stereo not drawn)
Activity [2]: inactive

SMILES: CCn1c(=O)c2cc(C(N)=O)c(N)nc2n(C2CC2)c1=O
Activity (MDA-MB-231 [3]): Active
Activity (MDA-MB-231 [4]): Active

SMILES: O=C1CCC(N2C(=O)c3ccccc3C2=O)C(=O)N1 (stereo not drawn)
Activity (MDA-MB-231 [5]): inactive

SMILES: NC(=O)c1cc2c(=O)n(CC(=O)NCCOCCNC(=O)COc3cccc4c3C(=O)N(C3CCC(=O)NC3=O)C4=O)c(=O)n(C3CC3)c2cc1N (stereo not drawn)
Activity [2]: inactive

Source: ChEMBL document CHEMBL4706525, “Designing an eEF2K-Targeting PROTAC small molecule that induces apoptosis in MDA-MB-231 cells” (Eur J Med Chem, 2020)
